Legend:
Format in all cases: cell-based, human
[1] = system: MU89 MART::EGFP cell line; experiment: Melan-A/MART-1 promoter-driven EGFP reporter, kinetics by flow cytometry; conditions: MU89 MART::EGFP (FIG. 11)
Description: FIG. 11 is a set of four graphs showing the kinetics of Melan-A/MART-1 increase. […] The same number of cells per well were plated in each well of a 24 well plate and drug was added on day zero. Each day cells were collected and assayed for that time point. Control untreated cells are shown for comparison. The data are from one representative experiment.
A kinetic analysis was performed to determine the effect of Hsp90 inhibition on Melan-A/MART-1 promoter activity over time. […] Reporter activity increases steadily for the first 72 hours of Hsp90 inhibition, and then plateaus. The need for continued presence of Hsp90 inhibitors in order for them to be effective (i.e. whether the drug can be removed after short exposure, or whether it must it be continually present) was assessed. […] To achieve full signal enhancement, it is desirable to retain the drug for at least 48 hours, after which the effect remains constant or slightly decreases.
The generation and application of EGFP reporter cells has been previously described. Briefly, a 1200 base pair human genomic DNA segment encompassing the Melan-A/MART-1 promoter was used to generate a construct driving expression of the EGFP reporter gene. Stable transfectants with this construct were generated in the low-antigen cell line A375 and the high-antigen line MM96L+ and MU89. The EGFP expression response patterns of these cells to IFN-beta and MAP kinase inhibitors recapitulates the antigen up-regulation of endogenous Melan-A/MART-1 induced by these agents.
(§1) Intracellular staining and flow cytometric analyses of cytoplasmic Melan-A/MART-1, and gp100 expression were performed as described previously. Cells were fixed with 1% formaldehyde, permeabilized with 0.1% saponin, stained with monoclonal antibodies to melanocyte antigens. Antibodies were obtained with specificity for: Melan-A/MART-1 from Vector Labs (Burlingame, Calif.); gp100/HMB45 from DakoCytomation (Carpinteria, Calif.) and then visualized with goat anti-mouse FITC-conjugated secondary antibody from Invitrogen (Frederick, Md.). The level of EGFP was determined by flow cytometry of unfixed cells washed and resuspended in 1×PBS. Surface staining of MHC Class I was carried out using the antibody W6/32 on cells harvested with Cell Stripper from MediaTech Inc. (Manassas, Va.) and carried out on ice.

A375 melanoma cell line = experiment: Antibody staining and flow cytometry (intracellular Melan-A/MART-1, gp100, TRP-2; surface MHC Class I)
Description: (§2) Cells were fixed with 1% formaldehyde, permeabilized with 0.1% saponin, stained with monoclonal antibodies to melanocyte antigens. Antibodies were obtained with specificity for: MART-1 from Vector Labs (Burlingame, Calif.); gp100 HMB45 from DakoCytomation (Carpinteria, Calif.) and then visualized with goat anti-mouse FITC-conjugated secondary antibody from Invitrogen (Fredrick, Md.). The level of EGFP was determined by flow cytometry of unfixed cells that were washed and resuspended in 1×PBS.
(§3) Cells were plated at a density of 1×10^5 in 1 ml of medium in a 24-well plate and cultured for varying times as indicated in results. […] After incubation, cells were collected by trypsinization and then evaluated by flow cytometry.
as §1
(§4) Cell were seeded at 1×10^6 cells in a T25 flask with 10 ml of media for the 4 day IFN-beta pre-treatments. Cells were then harvested and plated in 24 well plate at 1×10^5 cells per well in 1 ml of media for 3 day treatments.
(§5) For surface staining of HLA Class I and II antigens, cells were harvested using CellStripper™ from Mediatech (Manassas, Va.). All staining steps were performed on ice. Following a first incubation with antibody to Class I (W6/32) or Class II (L243) for 30 minutes. Stained cells were washed twice with cold PBS and then stained with a goat anti-mouse FITC secondary antibody to allow for quantitative analysis by flow cytometry. For evaluation of cytoplasmic antigens, including Melan-A/MART-1 and gp100, cells were first fixed in paraformaldehyde and permeabilized with saponin as previously described. Staining for cytoplasmic antigens was carried out at room temperature (22° C.).

MUX melanoma cell line = experiment: as above
Description: as §2, §3, §1, §4, §5

U-87 MG glioma cell line = experiment: Antibody staining and flow cytometry (intracellular gp100; surface MHC Class I)
Description: as §2, §3, §1

[2] = 3 days, IFN-beta 5000 Units/ml, 17-AEP 0.5, PU-H71 0.15, CCT018159 2.5 μg/ml
[3] = 4 day IFN-β pre-treatment (5000 Units/ml), then 3 days with fresh IFN-β and the labelled HSP90 inhibitor (label IFN-β: no inhibitor), 17-AEP 0.5, PU-H71 0.15, CCT018159 2.5
[4] = 4 day IFN-β pre-treatment (5000 Units/ml), then 3 days without IFN-β with the labelled HSP90 inhibitor (label IFN-β: no inhibitor), 17-AEP 0.5, PU-H71 0.15, CCT018159 2.5
[5] = single agent for 3 days, no IFN-β pre-treatment, IFN-β 5000 Units/ml, 17-AEP 0.5, PU-H71 […], CCT018159 2.5
[6] = three days, IFN-β 5000 Units/ml, 17-AEP 0.5, PU-H71 […], CCT018159 2.5
[7] = MUX, 3 days, IFN-beta 5000 Units/ml, 17-AEP 1.0, PU-H71 0.3, CCT018159 10.0 μg/ml
[8] = MUX, 4 day IFN-β pre-treatment (5000 Units/ml), then 3 days with fresh IFN-β and the labelled HSP90 inhibitor (label IFN-β: no inhibitor), 17-AEP 1, PU-H71 0.3, CCT018159 10 mg/ml
[9] = MUX, 4 day IFN-β pre-treatment (5000 Units/ml), then 3 days without IFN-β with the labelled HSP90 inhibitor (label IFN-β: no inhibitor), 17-AEP 1, PU-H71 0.3, CCT018159 10 mg/ml
[10] = MUX, single agent for 3 days, no IFN-β pre-treatment, IFN-β 5000 Units/ml, 17-AEP 1 μg/ml, PU-H71 0.3 μg/ml, CCT018159 10 μg/ml
[11] = U-87 MG, 3 days, IFN-beta 5000 Units/ml, 17-AEP 0.5, PU-H71 0.3, CCT018159 5.0 μg/ml
[12] = MUX (BRAF M/M, NRAS WT), 3 days, 17-AEP 0.50, CCT018159 5.00, PU-H71 0.30 μg/ml
[13] = MUX, three days, IFN-β 5000 Units/ml, 17-AEP 1 μg/ml, PU-H71 0.3 μg/ml, CCT018159 10 μg/ml

SMILES | Time at which the fluorescent reporter signal is significantly enhanced (as early as) [1] [days] | Class I, geometric mean of surface staining (W6/32) (A375 melanoma cell line; [2]) | MART-1, geometric mean of intracellular staining (A375 melanoma cell line; [2]) | TRP-2, geometric mean of intracellular staining (A375 melanoma cell line; [2]) | gp100, geometric mean of intracellular staining (A375 melanoma cell line; [2]) | MHC Class I, geometric mean of surface staining (W6/32) (A375 melanoma cell line; [3]) | MHC Class I, geometric mean of surface staining (W6/32) (A375 melanoma cell line; [4]) | MHC Class I, geometric mean of surface staining (W6/32) (A375 melanoma cell line; [5]) | MHC Class I, geometric mean of surface staining (W6/32) (A375 melanoma cell line; [6]) | Class I, geometric mean of surface staining (W6/32) (MUX melanoma cell line; [7]) | MART-1, geometric mean of intracellular staining (MUX melanoma cell line; [7]) | TRP-2, geometric mean of intracellular staining (MUX melanoma cell line; [7]) | gp100, geometric mean of intracellular staining (MUX melanoma cell line; [7]) | MHC Class I, geometric mean of surface staining (W6/32) (MUX melanoma cell line; [8]) | MHC Class I, geometric mean of surface staining (W6/32) (MUX melanoma cell line; [9]) | MHC Class I, geometric mean of surface staining (W6/32) (MUX melanoma cell line; [10]) | Class I, geometric mean of surface staining (W6/32) (U-87 MG glioma cell line; [11]) | gp100, geometric mean of intracellular staining (U-87 MG glioma cell line; [11]) | MHC Class I, geometric mean of surface staining (W6/32) (MUX melanoma cell line; [13]) | also measured
CO[C@H]1/C=C\C=C(/C)C(=O)NC2=CC(=O)C(NCCN3CCCC3)=C(C[C@@H](C)C[C@H](OC)[C@H](O)[C@@H](C)/C=C(\C)[C@@H]1OC(N)=O)C2=O [17-AEP] | 2 | 67 | 11 | 31 | 22 | 144 | 90 | 109 | 67 | 219 | 19 | 48 | 34 | 615 | 496 | 286 | 66 | 51 |  | 
CCc1cc(-c2n[nH]c(C)c2-c2ccc3c(c2)OCCO3)c(O)cc1O [CCT018159] | 2 | 70 | 13 | 37 | 32 | 181 | 139 | 119 | 70 | 174 | 22 | 40 | 40 | 599 | 397 | 265 | 28 | 71 | 174 | Class I, fold increase relative to untreated control (A375 melanoma cell line; [2]): 1.9 fold; MART-1, fold increase relative to untreated control (A375 melanoma cell line; [2]): 2.2 fold; TRP-2, fold increase relative to untreated control (A375 melanoma cell line; [2]): 2.3 fold; gp100, fold increase relative to untreated control (A375 melanoma cell line; [2]): 2.1 fold; HMB45, level of induction relative to untreated control cells (MUX melanoma cell line; [12]): 1.89; MART-1, level of induction relative to untreated control cells (MUX melanoma cell line; [12]): 1.64; Class I, fold increase relative to untreated control (MUX melanoma cell line; [7]): 1.7 fold; MART-1, fold increase relative to untreated control (MUX melanoma cell line; [7]): 1.7 fold; TRP-2, fold increase relative to untreated control (MUX melanoma cell line; [7]): 1.0 fold; gp100, fold increase relative to untreated control (MUX melanoma cell line; [7]): 1.5 fold; Class I, fold increase relative to untreated control (U-87 MG glioma cell line; [11]): 1.0 fold; gp100, fold increase relative to untreated control (U-87 MG glioma cell line; [11]): 2.5 fold
CC(C)NCCCn1c(Sc2cc3c(cc2I)OCO3)nc2c(N)ncnc21 [PU-H71] | 2 | 71 | 11 | 26 | 24 | 226 | 174 | 131 | 71 | 212 | 19 | 41 | 32 | 579 | 477 | 282 | 53 | 66 | 212 | MHC Class I, geometric mean of surface staining (W6/32) (U-87 MG glioma cell line; U-87 glioma, three days, IFN-β 5000 Units/ml, PU-H71 0.075-0.3): 71
